From US20080146617A1, “Methods of treating inflammatory diseases” (Roche Palo Alto LLC, priority 2006, published 2008)
Like-named read-outs stand apart in the source and are kept apart here.

Experiments:
Assay in all cases: KinomeScan kinase profiling
Format in all cases: binding
CDK5 = molecular target: T1, CDK5 (Homo sapiens, UniProt Q00535)
T1 construct: purchased Ambit Biosciences (San Diego, Calif.)

FGR = molecular target: T2, FGR (Homo sapiens, UniProt P09769)
T2 construct: purchased Ambit Biosciences (San Diego, Calif.)
T2 sequence (P09769 whole entry): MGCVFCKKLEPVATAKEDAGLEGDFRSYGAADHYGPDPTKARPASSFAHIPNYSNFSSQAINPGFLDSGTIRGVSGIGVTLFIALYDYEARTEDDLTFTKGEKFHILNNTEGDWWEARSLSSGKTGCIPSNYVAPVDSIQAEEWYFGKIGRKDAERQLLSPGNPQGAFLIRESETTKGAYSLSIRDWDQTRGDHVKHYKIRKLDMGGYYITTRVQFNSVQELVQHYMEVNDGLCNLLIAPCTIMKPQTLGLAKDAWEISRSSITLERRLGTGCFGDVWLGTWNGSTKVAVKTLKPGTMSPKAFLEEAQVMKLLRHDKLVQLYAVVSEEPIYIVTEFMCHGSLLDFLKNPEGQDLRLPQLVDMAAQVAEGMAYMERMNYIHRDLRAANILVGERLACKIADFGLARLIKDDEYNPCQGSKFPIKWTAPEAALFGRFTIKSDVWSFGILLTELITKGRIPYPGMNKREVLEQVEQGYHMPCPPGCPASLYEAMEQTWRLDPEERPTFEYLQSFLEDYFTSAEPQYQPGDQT

p38-alpha = molecular target: T3, p38-alpha (Homo sapiens, UniProt Q16539)
T3 construct: purchased Ambit Biosciences (San Diego, Calif.)

ACK1 = molecular target: T4, ACK1 (Homo sapiens, UniProt Q07912)
T4 construct: purchased Ambit Biosciences (San Diego, Calif.)
From the text: (§1) The selectivity of a given CK1δ, CK1ε or CK1δ-CK1ε inhibitor compound can be determined by testing the compound against a panel of known kinases. An example of such a kinase profiling technology is the “KinomeScan” from Ambit Biosciences in which compounds can be screened for their modulatory activities against more than 200 known kinases.

AURKC = molecular target: T5, AURKC (Homo sapiens, UniProt Q9UQB9)
T5 construct: purchased Ambit Biosciences (San Diego, Calif.)
From the text: as §1

BMX = molecular target: T6, BMX (Homo sapiens, UniProt P51813)
T6 construct: purchased Ambit Biosciences (San Diego, Calif.)
From the text: as §1

BTK = molecular target: T7, BTK (Homo sapiens, UniProt Q06187)
T7 construct: purchased Ambit Biosciences (San Diego, Calif.)
From the text: as §1

CAMK1G = molecular target: T8, CAMK1G (Homo sapiens, UniProt Q96NX5)
T8 construct: purchased Ambit Biosciences (San Diego, Calif.)
From the text: as §1

CAMK2D = molecular target: T9, CAMK2D (Homo sapiens, UniProt Q13557)
T9 construct: purchased Ambit Biosciences (San Diego, Calif.)
From the text: as §1

CLK1 = molecular target: T10, CLK1 (Homo sapiens, UniProt P49759)
T10 construct: purchased Ambit Biosciences (San Diego, Calif.)
From the text: as §1

CLK3 = molecular target: T11, CLK3 (Homo sapiens, UniProt P49761)
T11 construct: purchased Ambit Biosciences (San Diego, Calif.)
From the text: as §1

CSNK1G1 = molecular target: T12, CSNK1G1 (Homo sapiens, UniProt Q9HCP0)
T12 construct: purchased Ambit Biosciences (San Diego, Calif.)
From the text: as §1

EPHA5 = molecular target: T13, EPHA5 (Homo sapiens, UniProt P54756)
T13 construct: purchased Ambit Biosciences (San Diego, Calif.)
T13 sequence (P54756 25-1037): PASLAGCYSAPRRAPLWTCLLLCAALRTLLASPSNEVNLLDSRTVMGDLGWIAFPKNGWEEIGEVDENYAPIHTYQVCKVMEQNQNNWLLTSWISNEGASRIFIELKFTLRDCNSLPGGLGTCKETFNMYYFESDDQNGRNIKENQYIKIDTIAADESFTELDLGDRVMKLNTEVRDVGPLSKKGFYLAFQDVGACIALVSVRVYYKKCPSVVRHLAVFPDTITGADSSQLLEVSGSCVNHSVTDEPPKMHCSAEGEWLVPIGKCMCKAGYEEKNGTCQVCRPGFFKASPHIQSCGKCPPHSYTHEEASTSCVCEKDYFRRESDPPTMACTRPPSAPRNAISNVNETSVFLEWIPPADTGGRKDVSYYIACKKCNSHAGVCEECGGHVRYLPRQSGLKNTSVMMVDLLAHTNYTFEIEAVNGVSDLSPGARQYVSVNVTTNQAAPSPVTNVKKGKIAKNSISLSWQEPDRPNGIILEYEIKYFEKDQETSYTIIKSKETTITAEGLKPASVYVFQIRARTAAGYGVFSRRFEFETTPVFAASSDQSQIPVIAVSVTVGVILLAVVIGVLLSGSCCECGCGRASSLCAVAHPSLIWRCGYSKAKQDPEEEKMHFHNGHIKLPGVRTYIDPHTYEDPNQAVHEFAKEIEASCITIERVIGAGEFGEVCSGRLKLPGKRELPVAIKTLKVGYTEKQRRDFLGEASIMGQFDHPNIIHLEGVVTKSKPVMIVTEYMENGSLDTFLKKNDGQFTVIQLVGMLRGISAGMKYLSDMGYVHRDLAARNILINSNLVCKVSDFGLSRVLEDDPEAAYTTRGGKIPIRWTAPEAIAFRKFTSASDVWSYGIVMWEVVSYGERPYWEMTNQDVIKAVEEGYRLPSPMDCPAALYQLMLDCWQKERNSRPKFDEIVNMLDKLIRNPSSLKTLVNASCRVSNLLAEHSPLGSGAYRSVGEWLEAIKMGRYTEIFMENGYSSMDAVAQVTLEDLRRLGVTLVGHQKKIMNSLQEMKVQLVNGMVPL
From the text: as §1

EPHA7 = molecular target: T14, EPHA7 (Homo sapiens, UniProt Q15375)
T14 construct: purchased Ambit Biosciences (San Diego, Calif.)
From the text: as §1

ERBB2 = molecular target: T15, ERBB2 (Homo sapiens, UniProt P04626)
T15 construct: purchased Ambit Biosciences (San Diego, Calif.)
From the text: as §1

ERK2 = molecular target: T16, ERK2 (Homo sapiens, UniProt P28482)
T16 construct: purchased Ambit Biosciences (San Diego, Calif.)
From the text: as §1

FGFR1 = molecular target: T17, FGFR1 (Homo sapiens, UniProt P11362)
T17 construct: purchased Ambit Biosciences (San Diego, Calif.)
From the text: as §1

GAK = molecular target: T18, GAK (Homo sapiens, UniProt O14976)
T18 construct: purchased Ambit Biosciences (San Diego, Calif.)
From the text: as §1

HCK = molecular target: T19, HCK (Homo sapiens, UniProt P08631)
T19 construct: purchased Ambit Biosciences (San Diego, Calif.)
T19 sequence (P08631 whole entry): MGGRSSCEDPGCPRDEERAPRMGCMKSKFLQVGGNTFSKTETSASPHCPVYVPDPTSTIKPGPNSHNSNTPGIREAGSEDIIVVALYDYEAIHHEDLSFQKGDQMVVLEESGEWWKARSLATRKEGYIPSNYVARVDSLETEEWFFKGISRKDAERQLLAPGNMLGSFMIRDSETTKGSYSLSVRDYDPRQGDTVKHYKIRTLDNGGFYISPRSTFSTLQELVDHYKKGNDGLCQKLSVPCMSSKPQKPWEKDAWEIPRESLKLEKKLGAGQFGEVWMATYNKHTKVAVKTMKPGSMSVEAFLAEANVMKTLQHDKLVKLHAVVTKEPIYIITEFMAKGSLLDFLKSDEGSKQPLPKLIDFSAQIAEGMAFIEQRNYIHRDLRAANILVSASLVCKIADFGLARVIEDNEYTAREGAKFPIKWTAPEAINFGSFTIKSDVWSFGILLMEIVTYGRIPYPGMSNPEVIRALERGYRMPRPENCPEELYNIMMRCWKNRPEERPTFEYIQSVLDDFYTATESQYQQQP
From the text: as §1

LYN = molecular target: T20, LYN (Homo sapiens, UniProt P07948)
T20 construct: purchased Ambit Biosciences (San Diego, Calif.)
From the text: as §1

MAP3K4 = molecular target: T21, MAP3K4 (Homo sapiens, UniProt Q9Y6R4)
T21 construct: purchased Ambit Biosciences (San Diego, Calif.)
From the text: as §1

MARK2 = molecular target: T22, MARK2 (Homo sapiens, UniProt Q7KZI7)
T22 construct: purchased Ambit Biosciences (San Diego, Calif.)
From the text: as §1

MKNK2 = molecular target: T23, MKNK2 (Homo sapiens, UniProt Q9HBH9)
T23 construct: purchased Ambit Biosciences (San Diego, Calif.)
T23 sequence (Q9HBH9 whole entry): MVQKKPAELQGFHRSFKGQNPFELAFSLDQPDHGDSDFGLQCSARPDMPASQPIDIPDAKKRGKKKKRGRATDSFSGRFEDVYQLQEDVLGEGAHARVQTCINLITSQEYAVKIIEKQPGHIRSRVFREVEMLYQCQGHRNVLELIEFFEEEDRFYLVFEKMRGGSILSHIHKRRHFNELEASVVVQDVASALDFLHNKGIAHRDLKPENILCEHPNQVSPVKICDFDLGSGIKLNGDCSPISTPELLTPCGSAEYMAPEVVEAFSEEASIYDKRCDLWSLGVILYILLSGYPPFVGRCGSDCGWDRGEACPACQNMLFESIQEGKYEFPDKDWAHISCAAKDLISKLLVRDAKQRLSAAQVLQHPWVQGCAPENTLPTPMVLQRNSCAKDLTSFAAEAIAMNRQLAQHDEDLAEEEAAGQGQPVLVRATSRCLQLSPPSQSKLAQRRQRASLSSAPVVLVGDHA
From the text: as §1

MYLK2 = molecular target: T24, MYLK2 (Homo sapiens, UniProt Q9H1R3)
T24 construct: purchased Ambit Biosciences (San Diego, Calif.)
T24 sequence (Q9H1R3 whole entry): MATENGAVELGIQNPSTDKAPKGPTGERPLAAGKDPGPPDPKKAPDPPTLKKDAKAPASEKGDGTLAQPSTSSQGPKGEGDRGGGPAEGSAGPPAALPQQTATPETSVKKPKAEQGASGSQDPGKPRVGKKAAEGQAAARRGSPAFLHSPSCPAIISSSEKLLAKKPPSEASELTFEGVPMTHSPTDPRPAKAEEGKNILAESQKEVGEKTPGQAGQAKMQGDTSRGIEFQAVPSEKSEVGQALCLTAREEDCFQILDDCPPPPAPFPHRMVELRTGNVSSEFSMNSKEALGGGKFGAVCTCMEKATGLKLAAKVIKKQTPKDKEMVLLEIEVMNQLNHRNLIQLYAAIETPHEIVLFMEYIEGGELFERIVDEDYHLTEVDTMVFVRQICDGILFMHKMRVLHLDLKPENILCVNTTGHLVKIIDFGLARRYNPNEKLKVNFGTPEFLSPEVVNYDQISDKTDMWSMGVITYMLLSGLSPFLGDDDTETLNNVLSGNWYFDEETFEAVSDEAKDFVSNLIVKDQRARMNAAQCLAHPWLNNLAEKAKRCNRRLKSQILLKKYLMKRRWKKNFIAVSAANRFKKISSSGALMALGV
From the text: as §1

NEK2 = molecular target: T25, NEK2 (Homo sapiens, UniProt P51955)
T25 construct: purchased Ambit Biosciences (San Diego, Calif.)
From the text: as §1

NEK9 = molecular target: T26, NEK9 (Homo sapiens, UniProt Q8TD19)
T26 construct: purchased Ambit Biosciences (San Diego, Calif.)
T26 sequence (Q8TD19 whole entry): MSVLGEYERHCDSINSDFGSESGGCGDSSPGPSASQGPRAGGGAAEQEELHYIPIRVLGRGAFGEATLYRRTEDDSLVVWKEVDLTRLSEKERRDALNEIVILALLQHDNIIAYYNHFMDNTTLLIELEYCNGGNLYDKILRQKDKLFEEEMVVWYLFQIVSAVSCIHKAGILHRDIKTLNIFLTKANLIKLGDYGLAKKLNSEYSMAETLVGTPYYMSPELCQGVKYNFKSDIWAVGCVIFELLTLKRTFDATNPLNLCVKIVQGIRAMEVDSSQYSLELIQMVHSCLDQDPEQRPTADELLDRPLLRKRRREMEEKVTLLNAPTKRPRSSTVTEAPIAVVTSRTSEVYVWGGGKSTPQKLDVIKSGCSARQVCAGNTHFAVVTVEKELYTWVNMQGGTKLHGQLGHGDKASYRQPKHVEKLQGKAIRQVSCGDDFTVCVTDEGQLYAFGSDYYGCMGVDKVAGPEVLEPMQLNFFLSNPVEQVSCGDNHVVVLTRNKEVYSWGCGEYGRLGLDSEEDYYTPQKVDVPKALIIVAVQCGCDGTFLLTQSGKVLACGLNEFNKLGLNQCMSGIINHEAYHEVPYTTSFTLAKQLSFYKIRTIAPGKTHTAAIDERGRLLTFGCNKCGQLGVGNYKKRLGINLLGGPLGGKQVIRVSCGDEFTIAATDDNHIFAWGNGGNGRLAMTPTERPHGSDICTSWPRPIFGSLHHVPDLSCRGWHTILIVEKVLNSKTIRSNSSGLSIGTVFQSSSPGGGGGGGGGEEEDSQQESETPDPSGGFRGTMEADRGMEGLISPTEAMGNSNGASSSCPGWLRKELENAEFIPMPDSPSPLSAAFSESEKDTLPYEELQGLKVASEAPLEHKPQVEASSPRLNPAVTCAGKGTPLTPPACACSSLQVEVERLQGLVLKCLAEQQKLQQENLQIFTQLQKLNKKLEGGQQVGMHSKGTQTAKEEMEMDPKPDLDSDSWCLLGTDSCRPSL
From the text: as §1

PTK2 = molecular target: T27, PTK2 (Homo sapiens, UniProt Q05397)
T27 construct: purchased Ambit Biosciences
From the text: as §1

RAF1 = molecular target: T28, RAF1 (Homo sapiens, UniProt P04049)
T28 construct: purchased Ambit Biosciences
From the text: as §1

ROS1 = molecular target: T29, ROS1 (Homo sapiens, UniProt P08922)
T29 construct: purchased Ambit Biosciences
From the text: as §1

RPS6KA5 = molecular target: T30, RPS6KA5 (Homo sapiens, UniProt O75582)
T30 construct: purchased Ambit Biosciences
From the text: as §1

SLK = molecular target: T31, SLK (Homo sapiens, UniProt Q9H2G2)
T31 construct: purchased Ambit Biosciences
From the text: as §1

SRC = molecular target: T32, SRC (Homo sapiens, UniProt P12931)
T32 construct: purchased Ambit Biosciences
From the text: as §1

STK10 = molecular target: T33, STK10 (Homo sapiens, UniProt O94804)
T33 construct: purchased Ambit Biosciences
T33 sequence (O94804 whole entry): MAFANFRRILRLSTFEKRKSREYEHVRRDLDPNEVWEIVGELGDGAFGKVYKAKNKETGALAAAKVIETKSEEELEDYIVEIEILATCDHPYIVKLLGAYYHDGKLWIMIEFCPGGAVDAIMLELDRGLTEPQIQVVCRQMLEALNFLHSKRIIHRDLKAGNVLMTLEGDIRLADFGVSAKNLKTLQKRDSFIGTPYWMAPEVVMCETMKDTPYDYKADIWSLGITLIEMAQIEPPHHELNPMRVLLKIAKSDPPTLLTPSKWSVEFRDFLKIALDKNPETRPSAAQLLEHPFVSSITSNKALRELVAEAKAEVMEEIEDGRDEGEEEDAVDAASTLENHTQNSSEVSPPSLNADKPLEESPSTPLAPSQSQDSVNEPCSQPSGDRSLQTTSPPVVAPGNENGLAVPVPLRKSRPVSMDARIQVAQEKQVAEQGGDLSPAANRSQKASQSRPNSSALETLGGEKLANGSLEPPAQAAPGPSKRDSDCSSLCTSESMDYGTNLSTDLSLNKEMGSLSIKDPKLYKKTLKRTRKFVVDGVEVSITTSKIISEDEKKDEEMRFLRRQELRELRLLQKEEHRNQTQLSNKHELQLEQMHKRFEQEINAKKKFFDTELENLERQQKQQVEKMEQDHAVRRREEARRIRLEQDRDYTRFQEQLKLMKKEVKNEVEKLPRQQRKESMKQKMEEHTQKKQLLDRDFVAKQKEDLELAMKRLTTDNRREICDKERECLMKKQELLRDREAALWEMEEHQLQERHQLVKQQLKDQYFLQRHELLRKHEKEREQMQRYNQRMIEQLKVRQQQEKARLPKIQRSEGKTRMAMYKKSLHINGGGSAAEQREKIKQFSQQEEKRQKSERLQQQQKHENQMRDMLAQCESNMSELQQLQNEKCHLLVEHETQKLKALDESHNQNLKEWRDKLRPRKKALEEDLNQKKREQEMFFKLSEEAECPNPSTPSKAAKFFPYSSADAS
From the text: as §1

STK11 = molecular target: T34, STK11 (Homo sapiens, UniProt Q15831)
T34 construct: purchased Ambit Biosciences
From the text: as §1

STK17B = molecular target: T35, STK17B (Homo sapiens, UniProt O94768)
T35 construct: purchased Ambit Biosciences
From the text: as §1

STK36 = molecular target: T36, STK36 (Homo sapiens, UniProt Q9NRP7)
T36 construct: purchased Ambit Biosciences
From the text: as §1

SYK = molecular target: T37, SYK (Homo sapiens, UniProt P43405)
T37 construct: purchased Ambit Biosciences
From the text: as §1

TTK = molecular target: T38, TTK (Homo sapiens, UniProt P33981)
T38 construct: purchased Ambit Biosciences
From the text: as §1

ULK3(mouse) = molecular target: T39, ULK3(mouse) (Mus musculus, UniProt Q3U3Q1)
T39 construct: purchased Ambit Biosciences (San Diego, Calif.)
From the text: as §1

YES = molecular target: T40, YES (Homo sapiens, UniProt P07947)
T40 construct: purchased Ambit Biosciences (San Diego, Calif.)
From the text: as §1

Measured: inhibition at 10 µM

NC(=O)c1ccc(-c2nc(-c3ccc4c(c3)OCCO4)c(-c3ccccn3)[nH]2)cc1 [D4476, 4-[4-(2,3-Dihydro-benzo[1,4]dioxin-6-yl)-5-pyridin-2-yl-1H-imidazol-2-yl]benzamide]
< 50%: CDK5 | FGR | p38-alpha | ACK1 | AURKC | BMX | BTK | CAMK1G | CAMK2D | CLK1 | CLK3 | CSNK1G1 | EPHA5 | EPHA7 | ERBB2 | ERK2 | FGFR1 | GAK | HCK | LYN | MAP3K4 | MARK2 | MKNK2 | MYLK2 | NEK2 | NEK9 | PTK2 | RAF1 | ROS1 | RPS6KA5 | SLK | SRC | STK10 | STK11 | STK17B | STK36 | SYK | TTK | ULK3(mouse) | YES

NC(=O)c1ccc(-c2nc(-c3ccc4c(c3)OCO4)c(-c3ccccn3)[nH]2)cc1 [SB431542, 4-(4-benzo-[1,3]dioxol-5-yl-5-pyridin-2-yl-1H-imidazol-2-yl)benzamide]
< 50%: CDK5 | FGR | p38-alpha | ACK1 | AURKC | BMX | BTK | CAMK1G | CAMK2D | CLK1 | CLK3 | CSNK1G1; 10 μM, CSNK1G1, read-out: % Inhibition | EPHA5 | EPHA7 | ERBB2 | ERK2 | FGFR1 | GAK | HCK | LYN | MAP3K4 | MARK2 | MKNK2 | MYLK2 | NEK2 | NEK9 | PTK2 | RAF1 | ROS1 | RPS6KA5 | SLK | SRC | STK10 | STK11 | STK17B | STK36 | SYK | TTK | ULK3(mouse) | YES
